These compounds were tested on MCH receptors (assay: MCH receptor activity class (method not given)). Details: class by percent of control at 10^-7 M or IC50.

SMILES	class
CN(C)c1ccnc(N[C@H]2CC[C@@H](CNC(=O)c3cccc([N+](=O)[O-])c3)CC2)n1 [compound 389]	3 (Class 3 The value of percent of control at 10^−7 M was more than 60% or the value of IC50 was more than 200 nM.)
CN(C)c1ccnc(N[C@H]2CC[C@@H](CNC(=O)Cc3ccccc3)CC2)n1 [compound 390]	3 (Class 3 The value of percent of control at 10^−7 M was more than 60% or the value of IC50 was more than 200 nM.)
CN(C)c1ccnc(N[C@H]2CC[C@@H](CNC(=O)C3C[C@H]3c3ccccc3)CC2)n1 (stereo partly drawn) [compound 391]	3 (Class 3 The value of percent of control at 10^−7 M was more than 60% or the value of IC50 was more than 200 nM.)
CN(C)c1ccnc(N[C@H]2CC[C@@H](CNC(=O)c3ccc4c(c3)OCO4)CC2)n1 [compound 392]	3 (Class 3 The value of percent of control at 10^−7 M was more than 60% or the value of IC50 was more than 200 nM.)
Cc1cccc(C(=O)NC[C@H]2CC[C@@H](Nc3nccc(N(C)C)n3)CC2)c1 [compound 395]	3 (Class 3 The value of percent of control at 10^−7 M was more than 60% or the value of IC50 was more than 200 nM.)
Cc1ccc(C(=O)NC[C@H]2CC[C@@H](Nc3nccc(N(C)C)n3)CC2)cc1 [compound 396]	3 (Class 3 The value of percent of control at 10^−7 M was more than 60% or the value of IC50 was more than 200 nM.)
CN(C)c1ccnc(N[C@H]2CC[C@@H](CNC(=O)c3cccs3)CC2)n1 [compound 397]	3 (Class 3 The value of percent of control at 10^−7 M was more than 60% or the value of IC50 was more than 200 nM.)
CN(C)c1ccnc(N[C@H]2CC[C@@H](CNC(=O)Cc3cccs3)CC2)n1 [compound 398]	3 (Class 3 The value of percent of control at 10^−7 M was more than 60% or the value of IC50 was more than 200 nM.)
CN(C)c1ccnc(N[C@H]2CC[C@@H](CNC(=O)c3cccc(OC(F)(F)F)c3)CC2)n1 [compound 399]	3 (Class 3 The value of percent of control at 10^−7 M was more than 60% or the value of IC50 was more than 200 nM.)
CN(C)c1ccnc(N[C@H]2CC[C@@H](CNC(=O)OCc3ccccc3)CC2)n1 [compound 400]	3 (Class 3 The value of percent of control at 10^−7 M was more than 60% or the value of IC50 was more than 200 nM.)
CN(C)c1ccnc(N[C@H]2CC[C@@H](CNC(=O)OCc3ccc([N+](=O)[O-])cc3)CC2)n1 [compound 401]	3 (Class 3 The value of percent of control at 10^−7 M was more than 60% or the value of IC50 was more than 200 nM.)
Cc1cc(C(=O)NC[C@H]2CC[C@@H](Nc3nccc(N(C)C)n3)CC2)ccc1Br [compound 402]	3 (Class 3 The value of percent of control at 10^−7 M was more than 60% or the value of IC50 was more than 200 nM.)
CN(C)c1ccnc(N[C@H]2CC[C@@H](CNC(=O)c3cccc(I)c3)CC2)n1 [compound 403]	3 (Class 3 The value of percent of control at 10^−7 M was more than 60% or the value of IC50 was more than 200 nM.)
CN(C)c1ccnc(N[C@H]2CC[C@@H](CNC(=O)c3cccc(Cl)c3F)CC2)n1 [compound 404]	3 (Class 3 The value of percent of control at 10^−7 M was more than 60% or the value of IC50 was more than 200 nM.)
Cc1ccc(C(=O)NC[C@H]2CC[C@@H](Nc3nccc(N(C)C)n3)CC2)c(F)c1F [compound 405]	3 (Class 3 The value of percent of control at 10^−7 M was more than 60% or the value of IC50 was more than 200 nM.)
CN(C)c1ccnc(N[C@H]2CC[C@@H](CNC(=O)c3ccc(F)cc3Cl)CC2)n1 [compound 406]	3 (Class 3 The value of percent of control at 10^−7 M was more than 60% or the value of IC50 was more than 200 nM.)
CN(C)c1ccnc(N[C@H]2CC[C@@H](CNC(=O)c3ccc(F)c(Cl)c3F)CC2)n1 [compound 407]	3 (Class 3 The value of percent of control at 10^−7 M was more than 60% or the value of IC50 was more than 200 nM.)
CN(C)c1ccnc(N[C@H]2CC[C@@H](CNC(=O)CSc3ccccc3)CC2)n1 [compound 408]	3 (Class 3 The value of percent of control at 10^−7 M was more than 60% or the value of IC50 was more than 200 nM.)
